Source: patent US20240158348A1, “HERBICIDAL CYCLIC AMIDES N-SUBSTITUTED WITH A HALOALKYLSULFONYLANILIDE GROUP” (FMC Corporation, priority 2021, published 2024)

Legend:
Assay type in all cases: in vivo
[1] = system: pigweed, palmer (palmer amaranth, Amaranthus palmeri); assay: Test C preemergence, palmer amaranth; settings: 0 is no effect, 100 is complete control
From the text: (§1) Seeds of plant species selected from blackgrass (Alopecurus myosuroides), corn (Zea mays), foxtail, giant (giant foxtail, Setaria faberi), goosegrass (Eleusine indica), kochia (Bassia scoparia), oat, wild (wild oat, Avena fatua), pigweed, palmer (palmer amaranth, Amaranthus palmeri), ragweed (common ragweed, Ambrosia artemisiifolia), ryegrass, Italian (Italian ryegrass, Lolium multiflorum), soybean (Glycine max) and wheat (Triticum aestivum) were planted into a blend of loam soil and sand and treated preemergence with a directed soil spray using test chemicals formulated in a non-phytotoxic solvent mixture which included a surfactant.
(§2) At the same time, plants selected from these crop and weed species and also galium (catchweed bedstraw, Galium aparine) and horseweed (Erigeron canadensis) were planted in pots containing the same blend of loam soil and sand and treated with postemergence applications of test chemicals formulated in the same manner. Plants ranged in height from 2 to 10 cm and were in the one- to two-leaf stage for the postemergence treatment. Treated plants and untreated controls were maintained in a greenhouse for 10 or 12 days, after which time all treated plants were compared to untreated controls and visually evaluated for injury. Plant response ratings, summarized in Table A, are based on a 0 to 100 scale where 0 is no effect and 100 is complete control. A dash (-) response means no test result.

kochia (Bassia scoparia) [2] = assay: Test C preemergence, kochia; settings: 0 is no effect, 100 is complete control
From the text: as §1, §2

[3] = system: wheat (Triticum aestivum); assay: Test C postemergence, wheat; settings: visual injury, 0 to 100 scale (0 no effect, 100 complete control)
From the text: as §1, §2

[4] = system: oat, wild (wild oat, Avena fatua); assay: Test C postemergence, wild oat; settings: visual injury, 0 to 100 scale (0 no effect, 100 complete control)
From the text: as §1, §2

[5] = system: goosegrass (Eleusine indica); assay: Test C postemergence, goosegrass; settings: visual injury, 0 to 100 scale (0 no effect, 100 complete control)
From the text: as §1, §2

[6] = system: ryegrass, Italian (Italian ryegrass, Lolium multiflorum); assay: Test C postemergence, Italian ryegrass; settings: visual injury, 0 to 100 scale (0 no effect, 100 complete control)
From the text: as §1, §2

[7] = system: blackgrass (Alopecurus myosuroides); assay: Test C postemergence, blackgrass; settings: visual injury, 0 to 100 scale (0 no effect, 100 complete control)
From the text: as §1, §2

[8] = system: ragweed (common ragweed, Ambrosia artemisiifolia); assay: Test C postemergence, ragweed; settings: visual injury, 0 to 100 scale (0 no effect, 100 complete control)
From the text: as §1, §2

[9] = system: foxtail, giant (giant foxtail, Setaria faberi); assay: Test C postemergence, giant foxtail; settings: visual injury, 0 to 100 scale (0 no effect, 100 complete control)
From the text: as §1, §2

[10] = system: oat, wild (wild oat, Avena fatua); assay: Test C preemergence, wild oat; settings: 0 is no effect, 100 is complete control
From the text: as §1, §2

[11] = system: pigweed, palmer (palmer amaranth, Amaranthus palmeri); assay: Test C postemergence, palmer amaranth; settings: visual injury, 0 to 100 scale (0 no effect, 100 complete control)
From the text: as §1, §2

[12] = system: ducksalad (Heteranthera limosa); assay: Test D flooded paddy test, ducksalad; set-up: key: 0 = no effect, 100 = complete control; settings: 250 g ai/ha, Flood; applied to paddy water at 2-leaf stage; visual rating after 13 days; scale 0 (no effect) to 100 (complete control)
Protocol: (§3) Plant species in the flooded paddy test selected from barnyardgrass (Echinochloa crusgalli), ducksalad (Heteranthera limosa), rice (Oryza sativa), and sedge, umbrella (small-flower umbrella sedge, Cyperus difformis) were grown to the 2-leaf stage for testing. At time of treatment, test pots were flooded to 3 cm above the soil surface, treated by application of test compounds directly to the paddy water, and then maintained at that water depth for the duration of the test. Treated plants and controls were maintained in a greenhouse for 13 days, after which time all species were compared to controls and visually evaluated. Plant response ratings, summarized in Table B, are based on a scale of 0 to 100 where 0 is no effect and 100 is complete control. A dash (-) response means no test result.

soybean (Glycine max) [13] = assay: Test C preemergence, soybean; settings: 0 is no effect, 100 is complete control
From the text: as §1, §2

[14] = system: galium (catchweed bedstraw, Galium aparine); assay: Test C postemergence, galium; settings: visual injury, 0 to 100 scale (0 no effect, 100 complete control)
From the text: as §1, §2

[15] = system: ryegrass, Italian (Italian ryegrass, Lolium multiflorum); assay: Test C preemergence, Italian ryegrass; settings: 0 is no effect, 100 is complete control
From the text: as §1, §2

[16] = system: barnyardgrass (Echinochloa crusgalli); assay: Test D flooded paddy test, barnyardgrass; set-up: key: 0 = no effect, 100 = complete control; settings: 250 g ai/ha, Flood; applied to paddy water at 2-leaf stage; visual rating after 13 days; scale 0 (no effect) to 100 (complete control)
Protocol: as §3

corn (Zea mays) [17] = assay: Test C preemergence, corn; settings: 0 is no effect, 100 is complete control
From the text: as §1, §2

soybean (Glycine max) [18] = assay: Test C postemergence, soybean; settings: visual injury, 0 to 100 scale (0 no effect, 100 complete control)
From the text: as §1, §2

[19] = system: goosegrass (Eleusine indica); assay: Test C preemergence, goosegrass; settings: 0 is no effect, 100 is complete control
From the text: as §1, §2

[20] = system: ragweed (common ragweed, Ambrosia artemisiifolia); assay: Test C preemergence, ragweed; settings: 0 is no effect, 100 is complete control
From the text: as §1, §2

[21] = system: sedge, umbrella (small-flower umbrella sedge, Cyperus difformis); assay: Test D flooded paddy test, umbrella sedge; set-up: key: 0 = no effect, 100 = complete control; settings: 250 g ai/ha, Flood; applied to paddy water at 2-leaf stage; visual rating after 13 days; scale 0 (no effect) to 100 (complete control)
Protocol: as §3

[22] = system: foxtail, giant (giant foxtail, Setaria faberi); assay: Test C preemergence, giant foxtail; settings: 0 is no effect, 100 is complete control
From the text: as §1, §2

kochia (Bassia scoparia) [23] = assay: Test C postemergence, kochia; settings: visual injury, 0 to 100 scale (0 no effect, 100 complete control)
From the text: as §1, §2

rice (Oryza sativa) = assay: Test D flooded paddy test, rice; set-up: key: 0 = no effect, 100 = complete control; settings: 250 g ai/ha, Flood; applied to paddy water at 2-leaf stage; visual rating after 13 days; scale 0 (no effect) to 100 (complete control)
Protocol: as §3

corn (Zea mays) [24] = assay: Test C postemergence, corn; settings: visual injury, 0 to 100 scale (0 no effect, 100 complete control)
From the text: as §1, §2

[25] = system: wheat (Triticum aestivum); assay: Test C preemergence, wheat; settings: 0 is no effect, 100 is complete control
From the text: as §1, §2

Compound: Cc1c(N2CCC(OC3CC3)C2=O)cc(N(C(=O)OCC(C)C)S(=O)(=O)C(F)(F)F)c(C)c1C (stereo not drawn) [Compound 50]
- Plant response rating (0 to 100 scale), Pigweed, Palmer ([1]; 31 g ai/ha Preemergence): 90
- Plant response rating (0 to 100 scale), Pigweed, Palmer ([1]; 125 g ai/ha Preemergence): 100
- Plant response rating (0 to 100 scale), Kochia (kochia (Bassia scoparia) [2]; 31 g ai/ha Preemergence): 20
- Plant response rating (0 to 100 scale), Kochia (kochia (Bassia scoparia) [2]; 125 g ai/ha Preemergence): 100
- Wheat plant response rating ([3]; 31 g ai/ha Postemergence): 60
- Wheat plant response rating ([3]; 125 g ai/ha Postemergence): 80
- Oat, Wild plant response rating ([4]; 31 g ai/ha Postemergence): 20
- Oat, Wild plant response rating ([4]; 125 g ai/ha Postemergence): 50
- Goosegrass plant response rating ([5]; 31 g ai/ha Postemergence): 20
- Goosegrass plant response rating ([5]; 125 g ai/ha Postemergence): 80
- Ryegrass, Italian plant response rating ([6]; 31 g ai/ha Postemergence): 50
- Ryegrass, Italian plant response rating ([6]; 125 g ai/ha Postemergence): 90
- Blackgrass plant response rating ([7]; 31 g ai/ha Postemergence): 10
- Blackgrass plant response rating ([7]; 125 g ai/ha Postemergence): 40
- Ragweed plant response rating ([8]; 31 g ai/ha Postemergence): 70
- Ragweed plant response rating ([8]; 125 g ai/ha Postemergence): 80
- Foxtail, Giant plant response rating ([9]; 31 g ai/ha Postemergence): 50
- Foxtail, Giant plant response rating ([9]; 125 g ai/ha Postemergence): 80
- Plant response rating (0 to 100 scale), Oat, Wild ([10]; 31 g ai/ha Preemergence): 70
- Plant response rating (0 to 100 scale), Oat, Wild ([10]; 125 g ai/ha Preemergence): 80
- Pigweed, Palmer plant response rating ([11]; 31 g ai/ha Postemergence): 20
- Pigweed, Palmer plant response rating ([11]; 125 g ai/ha Postemergence): 60
- Plant response rating, Ducksalad [12]: 90
- Plant response rating (0 to 100 scale), Soybean (soybean (Glycine max) [13]; 31 g ai/ha Preemergence): 30
- Plant response rating (0 to 100 scale), Soybean (soybean (Glycine max) [13]; 125 g ai/ha Preemergence): 60
- Galium plant response rating ([14]; 31 g ai/ha Postemergence): 60
- Galium plant response rating ([14]; 125 g ai/ha Postemergence): 100
- Plant response rating (0 to 100 scale), Ryegrass, Italian ([15]; 31 g ai/ha Preemergence): 50
- Plant response rating (0 to 100 scale), Ryegrass, Italian ([15]; 125 g ai/ha Preemergence): 100
- Plant response rating, Barnyardgrass [16]: 90
- Plant response rating (0 to 100 scale), Corn (corn (Zea mays) [17]; 31 g ai/ha Preemergence): 10
- Plant response rating (0 to 100 scale), Corn (corn (Zea mays) [17]; 125 g ai/ha Preemergence): 90
- Soybean plant response rating (soybean (Glycine max) [18]; 31 g ai/ha Postemergence): 60
- Soybean plant response rating (soybean (Glycine max) [18]; 125 g ai/ha Postemergence): 80
- Plant response rating (0 to 100 scale), Goosegrass ([19]; 31 g ai/ha Preemergence): 90
- Plant response rating (0 to 100 scale), Goosegrass ([19]; 125 g ai/ha Preemergence): 100
- Plant response rating (0 to 100 scale), Ragweed ([20]; 31 g ai/ha Preemergence): 30
- Plant response rating (0 to 100 scale), Ragweed ([20]; 125 g ai/ha Preemergence): 90
- Plant response rating, Sedge, Umbrella [21]: 95
- Plant response rating (0 to 100 scale), Foxtail, Giant ([22]; 31 g ai/ha Preemergence): 50
- Plant response rating (0 to 100 scale), Foxtail, Giant ([22]; 125 g ai/ha Preemergence): 100
- Kochia plant response rating (kochia (Bassia scoparia) [23]; 31 g ai/ha Postemergence): 20
- Kochia plant response rating (kochia (Bassia scoparia) [23]; 125 g ai/ha Postemergence): 70
- Plant response rating, Rice (rice (Oryza sativa)): 20
- Corn plant response rating (corn (Zea mays) [24]; 31 g ai/ha Postemergence): 30
- Corn plant response rating (corn (Zea mays) [24]; 125 g ai/ha Postemergence): 90
- Plant response rating (0 to 100 scale), Wheat ([25]; 31 g ai/ha Preemergence): 30
- Plant response rating (0 to 100 scale), Wheat ([25]; 125 g ai/ha Preemergence): 100
